Experimental data as given in ChEMBL document CHEMBL3286240, “Inhibition of Enterococcus faecalis biofilm formation by highly active lactones and lactams analogues of rubrolides” (Eur J Med Chem, 2014).
Values after ≈ are worked out from the molar mass of the structure shown.

Columns and labels:
[1] = system: Enterococcus faecalis; test: Antimicrobial activity against Enterococcus faecalis assessed as bacterial growth at 2.73 ug/ml after 20 hrs by microtiter plate assay; format: functional
[2] = system: Enterococcus faecalis; test: Antimicrobial activity against Enterococcus faecalis assessed as bacterial growth at 0.34 ug/ml after 20 hrs by microtiter plate assay; format: functional
[3] = system: Enterococcus faecalis; test: Antimicrobial activity against Enterococcus faecalis assessed as bacterial growth at 5.5 ug/ml after 20 hrs by microtiter plate assay; format: functional
[4] = system: Enterococcus faecalis; test: Antimicrobial activity against Enterococcus faecalis assessed as bacterial growth at 0.68 ug/ml after 20 hrs by microtiter plate assay; format: functional
[5] = system: Enterococcus faecalis; test: Antimicrobial activity against Enterococcus faecalis assessed as bacterial growth at 1.37 ug/ml after 20 hrs by microtiter plate assay; format: functional
[6] = system: Enterococcus faecalis; test: Antimicrobial activity against Enterococcus faecalis assessed as bacterial growth at 10.9 ug/ml after 20 hrs by microtiter plate assay; format: functional
[7] = system: Enterococcus faecalis; test: Antimicrobial activity against Enterococcus faecalis assessed as bacterial growth at 43.8 ug/ml after 20 hrs by microtiter plate assay; format: functional
[8] = system: Enterococcus faecalis; test: Antimicrobial activity against Enterococcus faecalis assessed as bacterial growth at 0.17 ug/ml after 20 hrs by microtiter plate assay; format: functional
[9] = system: Enterococcus faecalis; test: Antimicrobial activity against Enterococcus faecalis assessed as bacterial growth at 21.9 ug/ml after 20 hrs by microtiter plate assay; format: functional
[10] = system: Enterococcus faecalis; test: Antimicrobial activity against Enterococcus faecalis assessed as bacterial growth at 87.5 ug/ml after 20 hrs by microtiter plate assay; format: functional
[11] = system: Enterococcus faecalis; test: Antimicrobial activity against Enterococcus faecalis assessed as inhibition of biofilm formation after 20 hrs by crystal violet staining analysis; format: functional, organism-based

| SMILES | Activity [1] [%] | Activity [2] [%] | Activity [3] [%] | Activity [4] [%] | Activity [5] [%] | Activity [6] [%] | Activity [7] [%] | Activity [8] [%] | Activity [9] [%] | Activity [10] [%] | IC50 [11] [µg/mL] |
| --- | --- | --- | --- | --- | --- | --- | --- | --- | --- | --- | --- |
| COc1ccccc1C1=C(Br)C(=O)O/C1=C\c1ccc(C(F)(F)F)cc1 | -4.8 | -6.7 | 7.1 | -9.1 | -7.6 | 15.2 | 46.3 | -4.5 | 26 | 66.5 | – |
| COc1ccc(Br)cc1C1=C(Br)C(=O)O/C1=C\c1cccc(Cl)c1 | 16 | 0.8 | 14.9 | 4.8 | 14.4 | 18.4 | 38.8 | 7.2 | 34.8 | 72.1 | 6.91 (≈ 14.7 µM) |
| COc1ccc(Br)cc1C1=C(Br)C(=O)O/C1=C\c1ccc(Br)cc1 | 1.1 | -0.3 | 9.6 | 10.4 | 8.8 | 19.9 | 22.3 | 0.8 | 9.6 | 35.9 | 18.7 (≈ 36.3 µM) |
| COc1ccc(C)cc1C1=C(Br)C(=O)O/C1=C\c1cccc(Cl)c1 | 9.8 | -7.9 | 17.4 | -4.7 | 9.1 | 17.7 | 39.6 | -6.4 | 19.4 | 55.8 | 1.51 (≈ 3.72 µM) |
| COc1ccc(C)cc1C1=C(Br)C(=O)O/C1=C\c1ccccc1Cl | 19.9 | 29.9 | 19.1 | 33.9 | 27.1 | 5.1 | 28.8 | 21 | 18.2 | 63.8 | – |
| COc1ccc(Cl)cc1C1=C(Br)C(=O)O/C1=C\c1ccccc1Br | 23.8 | -4.7 | 36.3 | -3.4 | -0.8 | 33.2 | 47 | 0.8 | 47.5 | 68.7 | > 87.5 |
| COc1cccc(/C=C2\OC(=O)C(Br)=C2c2cc(Cl)ccc2OC)c1 | 11.8 | -4.1 | 9.7 | -5.6 | 0.3 | 9.2 | 24.1 | -1.5 | 19.7 | 40.5 | 53.1 (≈ 126 µM) |
| COc1ccccc1C1=C(Br)C(=O)N(CC(C)C)C1(O)Cc1ccc(C(F)(F)F)cc1 (configuration not stated) | 8.4 | 1.7 | 18.1 | 11.3 | 3.4 | 22.7 | -1.2 | 1.9 | -7 | -24.6 | – |
| COc1ccc(Br)cc1C1=C(Br)C(=O)N(CC(C)C)C1(O)Cc1cccc(Cl)c1 (configuration not stated) | -4.4 | -4.7 | -2.1 | -0.8 | 1.3 | 6.5 | 30.3 | 1.3 | 9.3 | 48.7 | > 87.5 |
| COc1ccc(Br)cc1C1=C(Br)C(=O)N(CC(C)C)C1(O)Cc1ccc(Br)cc1 (configuration not stated) | 8.9 | 10 | 8.4 | 6.3 | 3.2 | 10.4 | 28.1 | -8 | 15.8 | 42.4 | 33.4 (≈ 56.8 µM) |
